Test results: ChEMBL document CHEMBL1201862, “PubChem BioAssay data set” (2004)
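Test compounds were applied to cells in 96-well plates for 48 hours at 5 doses. At the GI50, growth is halved.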 The source made the active and inactive calls. Rule as the data show it: active = GI50 up to about 1.1 µM and inactive = higher.

Assays:
Test in all cases: NCI anticancer screen, dose series, 48 h
HCT-116 = tested on: HCT-116
A498 = tested on: A498
SK-MEL-2 = tested on: SK-MEL-2
SK-MEL-5 = tested on: SK-MEL-5
U-251 = tested on: U-251
HOP-62 = tested on: HOP-62
MDA-MB-435 = tested on: MDA-MB-435
BT-549 = tested on: BT-549
RXF 393 = tested on: RXF 393
OVCAR-3 = tested on: OVCAR-3
RPMI-8226 = tested on: RPMI-8226
MDA-N = tested on: MDA-N
SK-MEL-28 = tested on: SK-MEL-28
NCI-H522 = tested on: NCI-H522
A549 = tested on: A549
COLO 205 = tested on: COLO 205
HCC 2998 = tested on: HCC 2998
SF-295 = tested on: SF-295
NCI-H23 = tested on: NCI-H23

Row | Compound | GI50 (HCT-116) | GI50 (A498) | GI50 (SK-MEL-2) | GI50 (SK-MEL-5) | GI50 (U-251) | GI50 (HOP-62) | GI50 (MDA-MB-435) | GI50 (BT-549) | GI50 (RXF 393) | GI50 (OVCAR-3) | GI50 (RPMI-8226) | GI50 (MDA-N) | GI50 (SK-MEL-28) | GI50 (NCI-H522) | GI50 (A549) | GI50 (COLO 205) | GI50 (HCC 2998) | GI50 (SF-295) | GI50 (NCI-H23)
1 | C=CCC1=CC2(OC)C(=O)C(OC)(OC)C1C1C(OC)(OC)C(=O)C(OC)=CC12CC=C (stereo unspecified) | > 100 µM (inactive) | > 100 µM (inactive) | > 100 µM (inactive) | > 100 µM (inactive) | > 100 µM (inactive) | > 100 µM (inactive) | > 100 µM (inactive) | 49.9 µM (inactive) | > 100 µM (inactive) | > 100 µM (inactive) | > 100 µM (inactive) | > 100 µM (inactive) | > 100 µM (inactive) | > 100 µM (inactive) | > 100 µM (inactive) | > 100 µM (inactive) | > 100 µM (inactive) | > 100 µM (inactive) | > 100 µM (inactive)
2 | CC(=O)O[C@H]1C#C/C=C\C#CC[C@@H]2C(=O)N(C(=O)OC(C)(C)C)[C@@H]12 | 17.4 µM (inactive) | 33.4 µM (inactive) | 41.2 µM (inactive) | 18.2 µM (inactive) | 17.7 µM (inactive) | 7.11 µM (inactive) | 71.6 µM (inactive) | 33.5 µM (inactive) | 15.4 µM (inactive) | 41.1 µM (inactive) | 16.2 µM (inactive) | 39.4 µM (inactive) | 71.4 µM (inactive) | 12.8 µM (inactive) | 16.6 µM (inactive) | 22.2 µM (inactive) | 19.5 µM (inactive) | 21.3 µM (inactive) | 12.6 µM (inactive)
3 | COC(=O)[C@H](NC(=O)OC(C)(C)C)[C@H]1COC(C)(C)O1 | > 100 µM (inactive) | > 100 µM (inactive) | > 100 µM (inactive) | > 100 µM (inactive) | > 100 µM (inactive) | > 100 µM (inactive) | > 100 µM (inactive) | > 100 µM (inactive) | > 100 µM (inactive) | > 100 µM (inactive) | > 100 µM (inactive) | > 100 µM (inactive) | > 100 µM (inactive) | > 100 µM (inactive) | > 100 µM (inactive) | > 100 µM (inactive) | > 100 µM (inactive) | > 100 µM (inactive) | > 100 µM (inactive)
4 | CC/C(Cl)=N\OC(=O)Nc1ccc(OC)cc1 | 5.86 µM (inactive) | 18.2 µM (inactive) | 18.2 µM (inactive) | 6.18 µM (inactive) | 19.5 µM (inactive) | 16.5 µM (inactive) | 8.04 µM (inactive) | 1.6 µM (inactive) | 2.15 µM (inactive) | 5.68 µM (inactive) | 1.9 µM (inactive) | 6.14 µM (inactive) | 6.71 µM (inactive) | 0.847 µM (active) | 17.2 µM (inactive) | 2.11 µM (inactive) | 5.58 µM (inactive) | 17 µM (inactive) | 15.4 µM (inactive)
5 | CN(C)CCCN1C(=S)N(CCCN(C)C)c2c3cc(O)ccc3nc3c([N+](=O)[O-])ccc1c23 | 1 µM (active) | 0.839 µM (active) | 6.47 µM (inactive) | 3.18 µM (inactive) | 2.46 µM (inactive) | 2.61 µM (inactive) | 4.2 µM (inactive) | 11.7 µM (inactive) | 3.03 µM (inactive) | 1.68 µM (inactive) | 4.46 µM (inactive) | 3.42 µM (inactive) | 2.58 µM (inactive) | 1.32 µM (inactive) | 0.743 µM (active) | 1.12 µM (inactive) | 2.44 µM (inactive) | 3.37 µM (inactive) | 3.41 µM (inactive)
6 | O=[N+]([O-])c1ccc(O)c(/C=N/NC(=S)N2CCCCC2)c1 | 3.21 µM (inactive) | 9.12 µM (inactive) | 11.3 µM (inactive) | 3.7 µM (inactive) | 3.53 µM (inactive) | 5.74 µM (inactive) | 7.43 µM (inactive) | 6.14 µM (inactive) | 6.05 µM (inactive) | 2.24 µM (inactive) | 2.79 µM (inactive) | 8.26 µM (inactive) | 3.71 µM (inactive) | 3.52 µM (inactive) | 9.25 µM (inactive) | 2.38 µM (inactive) | 7.73 µM (inactive) | 3.01 µM (inactive) | 3.61 µM (inactive)
7 | Nc1nnc2oc3ccc4ccccc4c3cc1-2 | 34.4 µM (inactive) | 24.6 µM (inactive) | 27.7 µM (inactive) | 27.3 µM (inactive) | 35.9 µM (inactive) | > 100 µM (inactive) | 24.3 µM (inactive) | 33.8 µM (inactive) | 28 µM (inactive) | 34.8 µM (inactive) | 30.5 µM (inactive) | 34 µM (inactive) | 39.9 µM (inactive) | 24.4 µM (inactive) | 47.3 µM (inactive) | 23.6 µM (inactive) | 20.3 µM (inactive) | 26.4 µM (inactive) | 42.8 µM (inactive)
8 | CCOc1ccc(C2c3[nH]c4ccccc4c3CCN2C(=O)c2cccs2)cc1 (stereo unspecified) | 4.8 µM (inactive) | 7.4 µM (inactive) | 78.3 µM (inactive) | 5.75 µM (inactive) | 4.07 µM (inactive) | 4.67 µM (inactive) | 6.61 µM (inactive) | 61.9 µM (inactive) | 7.18 µM (inactive) | 9.89 µM (inactive) | 5.41 µM (inactive) | 6.55 µM (inactive) | > 100 µM (inactive) | 9.79 µM (inactive) | 7.03 µM (inactive) | 8.47 µM (inactive) | 2.08 µM (inactive) | 6.03 µM (inactive) | 56.4 µM (inactive)
9 | COc1ccc2/c(=C/c3ccc(N(C)C)cc3)c3cc(-c4ccccc4)[n+](C)n3c2c1 | 0.17 µM (active) | 0.408 µM (active) | 0.18 µM (active) | 0.0392 µM (active) | < 0.0318 µM (active) | 0.345 µM (active) | 0.0875 µM (active) | 0.0957 µM (active) | 0.59 µM (active) | 0.0834 µM (active) | 0.0263 µM (active) | 0.0889 µM (active) | 0.164 µM (active) | 0.153 µM (active) | 0.261 µM (active) | 0.0264 µM (active) | 0.115 µM (active) | 0.194 µM (active) | 0.158 µM (active)
10 | CC(=O)N(CCc1ccccc1)C(C)(C#N)c1ccccc1 (stereo unspecified) | > 100 µM (inactive) | > 100 µM (inactive) | > 100 µM (inactive) | > 100 µM (inactive) | > 100 µM (inactive) | > 100 µM (inactive) | > 100 µM (inactive) | > 100 µM (inactive) | > 100 µM (inactive) | > 100 µM (inactive) | > 100 µM (inactive) | > 100 µM (inactive) | > 100 µM (inactive) | > 100 µM (inactive) | > 100 µM (inactive) | > 100 µM (inactive) | > 100 µM (inactive) | > 100 µM (inactive) | > 100 µM (inactive)
11 | C[C@H](CCC(=O)NCC(=O)O)[C@H]1CC[C@H]2[C@@H]3[C@H](O)C[C@@H]4C[C@H](O)CC[C@]4(C)[C@H]3CC[C@]12C | > 100 µM (inactive) | > 100 µM (inactive) | > 100 µM (inactive) | > 100 µM (inactive) | > 100 µM (inactive) | > 100 µM (inactive) | > 100 µM (inactive) | > 100 µM (inactive) | > 100 µM (inactive) | > 100 µM (inactive) | > 100 µM (inactive) | > 100 µM (inactive) | > 100 µM (inactive) | > 100 µM (inactive) | > 100 µM (inactive) | > 100 µM (inactive) | > 100 µM (inactive) | > 100 µM (inactive) | > 100 µM (inactive)
12 | C[n+]1cc2cc(O)c(O)cc2c2ccc3cc(O)c(O)cc3c21.c1ccncc1 | 1.4 µM (inactive) | 2.51 µM (inactive) | 3.05 µM (inactive) | 3.24 µM (inactive) | 1.6 µM (inactive) | 2.12 µM (inactive) | 2.46 µM (inactive) | 2.26 µM (inactive) | 2.07 µM (inactive) | 2.37 µM (inactive) | 5.4 µM (inactive) | 3.25 µM (inactive) | 4.66 µM (inactive) | 0.617 µM (active) | 4.05 µM (inactive) | 10.3 µM (inactive) | 3.92 µM (inactive) | 3.39 µM (inactive) | 2.42 µM (inactive)
13 | Cc1ccc(C(=O)Nc2ccc(CP(=O)(O)O)cc2CP(=O)(O)O)cc1NC(=O)Nc1cc(C(=O)Nc2ccc(CP(=O)(O)O)cc2CP(=O)(O)O)ccc1C | > 100 µM (inactive) | > 100 µM (inactive) | > 100 µM (inactive) | > 100 µM (inactive) | > 100 µM (inactive) | > 100 µM (inactive) | > 100 µM (inactive) | > 100 µM (inactive) | > 100 µM (inactive) | > 100 µM (inactive) | > 100 µM (inactive) | > 100 µM (inactive) | > 100 µM (inactive) | 64.9 µM (inactive) | > 100 µM (inactive) | > 100 µM (inactive) | > 100 µM (inactive) | > 100 µM (inactive) | > 100 µM (inactive)
14 | CC(C)(C)c1ccc(-c2nnc(SCc3ccc(Cl)cc3)n2-c2cccc(C(F)(F)F)c2)cc1 | 4.71 µM (inactive) | 31.1 µM (inactive) | 16.8 µM (inactive) | 14 µM (inactive) | 8.85 µM (inactive) | 34.3 µM (inactive) | 11.9 µM (inactive) | > 93.3 µM (inactive) | 8.91 µM (inactive) | 1.87 µM (inactive) | 4.61 µM (inactive) | 24.2 µM (inactive) | > 78.9 µM (inactive) | 4.39 µM (inactive) | 7.64 µM (inactive) | 8.83 µM (inactive) | 11.2 µM (inactive) | 8.43 µM (inactive) | 10.9 µM (inactive)
